Source: patent US11560360B2, “Therapeutic compounds” (ARIZONA BOARD OF REGENTS ON BEHALF OF ARIZONA STATE …, priority 2016, dated 2023)

How the values were obtained:
FRDA lymphocytes [1] = assay: Cytotoxicity assay in FRDA lymphocytes cultured in glucose free media (galactose), Live/Dead flow cytometry; format: cell-based
Protocol: Flow cytometric determination of cell viability by fluorescence labeling was used employing calcein acetoxy-methyl-ester and ethidium homodimer-1 as live and dead cell stains
Cytotoxicity was assessed by the dye exclusion method. Live cells have intact membranes, which exclude a variety of dyes that easily penetrate the damaged, permeable membranes of non-viable cells. Propidium iodide, a membrane impermeant dye, is generally excluded from viable cells, although it can enter non-viable cells and bind to double-stranded DNA by intercalating between base pairs. Compounds 1-5 were tested for their cytotoxicity in FRDA lymphocytes using FACS analysis with propidium iodide. The results are depicted in FIG. 2. From the results it is evident that cytotoxicity decreases with increasing lipophilicity in lower as well as higher concentrations for compounds 1-5.
Evaluation of compounds 1-5 for their cytotoxicity and their ability to function within the mitochondrial respiratory chain was carried out by incubation of the prepared compounds for 24 or 48 h with FRDA lymphocytes. A nutrient-sensitized screening strategy has been used by culturing FRDA cells in galactose as the sole sugar source which forces mammalian cells to rely on mitochondrial oxidative phosphorylation (OXPHOS) to produce their ATP; they also become more sensitive to mitochondrial respiratory chain inhibitors than cells grown in glucose medium. Compounds 1-5 were tested for their cytotoxicity in FRDA lymphocytes using a simultaneous staining with a two-color fluorescence assay, the Live/Dead® Viability/Cytotoxicity Kit (Molecular Probes). This assay is used to measure two recognized parameters of cell viability, intracellular esterase activity and plasma integrity. The membrane-impermeant DNA dye ethidium homodimer-1 (EthD-1) was used to identify dead cells whose plasma membrane integrity was disrupted. The membrane-permeant dye calcein-AM was used to label live cells. It penetrates into the cells where it is metabolized by cytoplasmic esterases and becomes a fluorescent but membrane-impermeant probe which is retained in viable cells. One mL of FRDA lymphocyte cells (5×10^5 cells) was plated in a 24-well plate in glucose free media (galactose 25 mM), treated with the test compounds and incubated at 37° C. for 24 h or 48 h in a humidified atmosphere containing 5% CO2 in air. Cells were collected by centrifugation at 300×g for 3 min and washed with phosphate buffered saline. […] The samples were analyzed immediately by flow cytometry (C6 Accuri, BD Biosciences, San Jose, Calif.), using a 488 nm excitation laser and the and the FL1-H channel 530±15 nm emission filter and the FL2-H channel 585±15 nm. For each analysis 10,000 events were recorded and analyzed using C6 Accuri software (BD Biosciences).

[2] = system: mitochondrial inner membrane potential in FRDA lymphocytes; assay: JC-1 mitochondrial membrane potential (Δψm) assay; format: cell-based, human; conditions: 16 h pre-treatment, JC-1, FACS (FIG. 4)
Protocol: In each analysis, 10000 events were recorded. Depolarization with carbonyl cyanide p-(trifluoromethoxy) phenylhydrazone (FCCP), was used to serve as a positive control.
The ability of 1-5 to maintain mitochondrial membrane potential (ΔΨm) compared to the parent compound MV was studied. ΔΨm was determined using the cationic fluorescent dye 5, 5′, 6, 6′-tetrachloro-1, 1′, 3, 3′-tetraethylbenzimidazolyl carbocyanine iodide (JC-1), which is a lipophilic cation that selectively accumulates in mitochondria due to the negative potential across the inner mitochondrial membrane. The dye exists as a monomer at low concentrations giving a green fluorescence. […] Therefore, mitochondrial depolarization is indicated by a decrease in red/green fluorescence ratio. […]
The ability of the test compounds to depolarize or maintains mitochondrial inner membrane potential (Δψm) was assessed using the JC-1 probe. […] JC-1 is a dual stain, which can identify high membrane potential through J-aggregates (red fluorescence) and low membrane potential through J-monomers (green fluorescence). […] Cells were resuspended in phosphate buffered saline supplemented with 20 mM glucose and were analyzed immediately by FACS (C6 Accuri, BD Biosciences, San Jose, Calif.), using a 488 nm excitation laser and the FL1-H channel 530±15 nm emission filter and the FL2-H channel 585±15 nm. […]

FRDA lymphocytes [3] = assay: Measurement of cellular ATP concentration (firefly luciferase); format: cell-based, human; conditions: glucose free media (25 mM galactose), relative to untreated control (FIG. 6)
Protocol: Results are expressed as percentage of total ATP relative to untreated control.
ATP levels in FRDA lymphocytes were measured using firefly luciferase. The cells were grown on glucose-free media supplemented with galactose for 24 h prior to the addition of the test compounds. Since cells grown in galactose rely mostly on oxidative phosphorylation (OX-PHOS) to produce their ATP, they become more sensitive to mitochondrial respiratory chain inhibitors than cells grown in glucose medium.
Measurement of Cellular ATP Concentration
Total ATP levels in FRDA lymphocytes with or without partially blocking complex I activity with rotenone (5 nM) were measured using firefly luciferase as a means to measure ATP level. The cells were grown on glucose-free media supplemented with galactose. Since cells grown in galactose rely mostly on oxidative phosphorylation (OXPHOS) to produce their ATP, they become more sensitive to mitochondria respiratory chain inhibitors than cells grown in glucose medium. Briefly, lymphocytes (2×10^5 cell/mL) were plated (1 mL) in 24-well plates, treated with the test compounds, and then incubated at 37° C. for 48 h in a humidified atmosphere containing 5% CO2 in air. FRDA lymphocytes with partial inhibition of complex I, cells were preincubated with test compounds for overnight before rotenone (5 nM) treatment for 24 h. Cells in each well were mixed and transferred (100 μL) to 96-well microtiter black-walled cell culture plates (Costar, Corning, N.Y.). The total intracellular ATP level was measured in a luminator (Clarity™ luminescence microplate reader) using an ATP Bioluminescence Assay Kit (ViaLight®-Plus ATP monitoring reagent kit, Lonza) following the manufacturer's protocol. The total ATP level was expressed as a percentage of untreated control. Data are reported as the mean of at least three independent experiments.

With CN(C)c1ccc2nc3ccc(=[N+](C)C)cc-3sc2c1 [MB, Methylene blue, reference compound] as the compound, how does the cytotoxicity (FRDA lymphocytes [1]; FRDA lymphocytes on galactose for 48 h (FIG. 2)) read?
The cytotoxicity was “cytotoxic”.

And the cytotoxicity (FRDA lymphocytes [1]; FRDA lymphocytes, 0.5-2.5 μM concentrations)?
Its cytotoxicity is “strong cytotoxicity”.

What about the “preservation of mitochondrial membrane potential (Δψm)” value [2] of the same compound?
The value was “significantly depolarized Δψm”.

And the “cellular ATP levels” value (FRDA lymphocytes [3])?
Its value is “inhibited ATP production, especially at higher concentrations”.
